According to patent US20200223894A1, “PEPTIDES FOR THE TREATMENT OF CONDITIONS ASSOCIATED WITH ADIPONECTIN DYSFUNCTION” (AUCKLAND UNISERVICES LIMITED, priority 2017, published 2020):

T1: ERp44-adiponectin interaction (Mus musculus, UniProt Q9D1Q6)
T1 construct: from tissue; host or cells: adipose tissue of C57BL/6J mice on a high-fat diet, treated i.p. with the peptides
T1 sequence (Q9D1Q6 30-406): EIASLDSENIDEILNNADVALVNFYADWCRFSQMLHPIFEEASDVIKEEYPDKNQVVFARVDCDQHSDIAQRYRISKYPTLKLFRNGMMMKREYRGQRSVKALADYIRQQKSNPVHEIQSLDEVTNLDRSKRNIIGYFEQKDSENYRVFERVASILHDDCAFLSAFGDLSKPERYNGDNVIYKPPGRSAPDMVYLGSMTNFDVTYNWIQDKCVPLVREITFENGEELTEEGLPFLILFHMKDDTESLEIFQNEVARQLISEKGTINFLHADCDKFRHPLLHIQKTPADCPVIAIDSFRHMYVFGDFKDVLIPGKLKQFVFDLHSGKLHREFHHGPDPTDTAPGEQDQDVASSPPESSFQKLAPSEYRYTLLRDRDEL

T2: Recombinant mouse ERp44 (murine ERp44 without the signal sequence, monomeric fraction) (mouse, UniProt Q9D1Q6 30-406)
T2 construct: mature; Cloned into pET28b at the NheI and XhoI sites and expressed in E. coli; The monomer fraction from Superdex-200 was used; Free ERp44 is observed at 46,074 amu in ESI-MS; also called recombinant ERp44
T2 sequence (looked up): T1 sequence (Q9D1Q6 30-406)

B1: M1 (IgM-derived cargo peptide GTCY) (peptide)
peptide: GTCY
B2: Adiponectin peptide (adiponectin-derived cargo peptide KGTCAGWMA) (peptide)
peptide: KGTCAGWMA
notes: also called adiponectin derived peptide
B3: M2 (IgM-derived cargo peptide DTGGTCY) (peptide)
peptide: DTGGTCY

Experiments:
[1] = system: C57/BL6 mice fed a high fat diet; assay: Serum total and HMW adiponectin in high fat diet mice after acute peptide injection; assay type: in vivo, mouse; settings: HFD mice, 10 mg/kg i.p.; for HMW form of adiponectin in serum: normalized to corresponding cargo peptide
Description: (§1) All experimental protocols were approved by the Committee on the Use of Live Animals for Teaching and Research of the University of Hong Kong and carried out in accordance with ARRIVE (Animal Research: Reporting of In Vivo Experiments) as well as institutional guidelines for the care and use of laboratory animals. Mice of the C57BL/6J background were housed in a room under controlled temperature (23±1° C.) with 12 hour light-dark cycles and free access to water and food. Mice were fed with either standard chow (STC; 3.07 kcal/g, LabDiet 5053, Purina Mills, Richmond, Ind., USA) or high-fat diet (HFD; 4.73 kcal/g containing 45% fat, 20% protein and 35% carbohydrate, D12451, Research diet, N.J., USA) starting from four-weeks old.
Immunoprecipitation and Western blotting studies were performed on serum adipose tissue samples obtained from mice as described above in Example 2. The serum was collected 24 hours after injection.
Mice were administered intraperitoneally with the peptides described in Table 2 (10 mg/kg body weight for acute studies at 16-weeks old or 5 mg/kg/day for four-week chronic treatment at 12-weeks old). Body weights of the animals were monitored on a weekly basis. Fasting blood glucose was determined after 16-hours food starvation (from 6:00 pm to 10:00 am) by a Accu-Check Advantage II Glucometer (Roche Diagnostics Mannheim, Germany). Fasting body fat mass was determined by the minispec Body Composition Analyzer (Bruker Optics Inc., Tex., USA). Circulating and tissue contents of lipids, including triglycerides and total cholesterols, were analyzed using LiquiColor® Triglycerides and Stanbio Cholesterol assay kits, respectively. Serum adiponectin concentrations were determined with an in-house ELISA kit as described (Wang et al., 2006 J Biol Chem 281: 16391-16400). Serum insulin levels were measured with an in-house mouse insulin ELISA kit (Cat No. 32100, http://www.pharma.hku.hk/sweb/antibody/ELISA.php). Homeostatic Model Assessment of […]

3T3-L1 adipocytes = assay: Adiponectin levels and oligomeric distribution in conditioned media and cell lysate of peptide-treated adipocytes (Western blotting); assay type: cell-based, murine; settings: for amount of HMW adiponectin in the cell lysate / sub-population of the hexametric adiponectin in the cell lysate: compared to IgM-derived cargo peptides; for HMW adiponectin level in conditioned media / hexamer adiponectin level in conditioned media / trimeric adiponectin level in conditioned media: non-reducing SDS-PAGE
Description: 3T3-L1 cells (ATCC #CL-173, Manassas, Va., USA) were cultured in Dulbecco's Modified Eagle Medium (DMEM) supplemented with 10% fetal bovine serum (FBS) and 1% penicillin-streptomycin-fungisone (PSF) at 37° C. and under 5% CO2 95% humidified air. For differentiation, the confluent 3T3-L1 cultures were supplemented with 10 μg/ml insulin, 0.25 μM dexamethasone and 0.5 mM isobutylmethylxanthine for two days, followed by incubation with 10 μg/ml insulin in the culture medium for another two days. Subsequently, cells were incubated in DMEM with 10% FBS that was changed every two days. Peptide treatment (200 nM in FBS-free medium) was performed in fully differentiated 3T3-L1 adipocyte cultures. After incubation for 24 h, cell lysates and the conditioned medium were collected for subsequent analyses.
(§2) Cells or adipose tissues were washed with phosphate buffer (137 mM NaCl, 2.7 mM KCl, 4.3 mM Na2HPO4, 1.47 mM KH2PO4, pH 7.4) and then solubilized in lysis buffer (25 mM Tris-HCl pH 7.5, 150 mM NaCl, 5 mM NaF, 1% sodium deoxycholate, 1% Nonidet P-40, 1% Triton X-100 plus protease inhibitor mixtures). Equal amounts of lysates (100 μg) were precleared with protein G (Thermo Fisher Scientific, Waltham, Mass., USA) and incubated overnight with specific antibodies at 4° C. with shaking.
(§3) After incubating with protein G for another four hours, the immune-complexes were precipitated by low-speed centrifugation, washed three times with lysis buffer, and eluted in SDS-PAGE sample buffer (50 mM Tris-HCl pH 6.8, 1% SDS, 5% glycerol, 3% β-mercaptomethanol, 0.01% bromophenal blue) or 0.1 M glycine HCl (pH 3.0) and then diluted with non-reducing sample buffer (1% SDS, 5% glycerol, 10 mM Tris-HCl pH6.8) for analyzing adiponectin monomers and oligomers by Western blotting.
Cell lysates, media or serum samples were incubated with non-reducing sample buffer at room temperature for 10 minutes and then separated by 4-20% gradient SDS-PAGE. After transferring to polyvinylidene difluoride (PVDF) membranes, immunoblotting was performed using an in-house antibody against murine adiponectin developed by Antibody and Immunoassay Services, HKU (http://www.pharma.hku.hk/sweb/antibody/PolyclonalAntibodyCont.php?polyclonal_no=60 0005), or antibodies against ERp44 (Santa Cruz Biotechnology, Santa Cruz, Calif.), DsbA-L (Abcam, Cambridge, Mass., USA). Protein bands were quantified by ImageJ and intensities were compared. All experiments were repeated at least six times.

[2] = system: C57/BL6 mice fed a standard chow diet (STC) or high fat diet (HFD); assay: Four-week chronic peptide treatment of mice on STC or HFD: insulin sensitivity and energy homeostasis; assay type: in vivo, mouse; settings: 5 mg/kg/day i.p., four weeks; for HFD-induced hyperglycemia (fasting glucose levels): 16-hours fasting
Description: as §1
Mice were administered intraperitoneally with the peptides described in Table 2 (10 mg/kg body weight for acute studies at 16-weeks old or 5 mg/kg/day for four-week chronic treatment at 12-weeks old). Body weights of the animals were monitored on a weekly basis. Fasting blood glucose was determined after 16-hours food starvation (from 6:00 pm to 10:00 am) by a Accu-Check Advantage II Glucometer (Roche Diagnostics Mannheim, Germany). Fasting body fat mass was determined by the minispec Body Composition Analyzer (Bruker Optics Inc., Tex., USA). Circulating and tissue contents of lipids, including triglycerides and total cholesterols, were analyzed using LiquiColor® Triglycerides and Stanbio Cholesterol assay kits, respectively. Serum adiponectin concentrations were determined with an in-house ELISA kit as described (Wang et al., 2006 J Biol Chem 281: 16391-16400). Serum insulin levels were measured with an in-house mouse insulin ELISA kit (Cat No. 32100, http://www.pharma.hku.hk/sweb/antibody/ELISA.php). Homeostatic Model Assessment of
Insulin Resistance (HOMA-IR) was calculated as fasting insulin (μU/ml)×fasting glucose (mmol/L)/22.5 for comparison as described (Xu et al., 2013). All results were compared between mice treated with control and CPP peptides.

[3] = molecular target: T1, ERp44-adiponectin interaction; assay: ERp44-adiponectin interaction in mouse adipose tissue lysates by co-immunoprecipitation; assay type: in vivo; settings: HFD mice
Description: as §2, §3
Cell lysates, media or serum samples were incubated with non-reducing sample buffer at room temperature for 10 minutes and then separated by 4-20% gradient SDS-PAGE. […] Protein bands were quantified by ImageJ and intensities were compared. […]

[4] = molecular target: T2, Recombinant mouse ERp44 (murine ERp44 …); assay: ESI-MS of ERp44 (43 uM) incubated with 10-fold excess peptide (430 uM), 4 days, pH 6.5; disulfide-linked complex
Description: (§4) Mass spectrometry was used to quantify the amount of disulfide linkage between ERp44 and the various peptides. For this purpose, ERp44 (43 μM) was incubated with 10-fold excess (430 μM) of individual peptide. All samples were incubated for 4 days in 20 mM MES, 150 mM NaCl at pH 6.5 and subsequently subjected to mass spectrometric analyses.
(§5) The column eluate was ionized in the electrospray source of a QSTAR-XL quadrupole time-of-flight mass spectrometer (Applied Biosystems, Foster City, Calif.). A TOF-MS scan from 400 to 1600 m/z was performed. The resulting data were de-convoluted into protein molecular masses using the Bayesian Protein Reconstruct Tool within Analyst QS 1.1 (Applied Biosystems).

[5] = molecular target: T2, Recombinant mouse ERp44 (murine ERp44 …); assay: ESI-MS, recombinant mouse ERp44 43 uM with 430 uM peptide, 4 days
Description: as §4, §5

[6] = serum 24 hours after injection, vs corresponding cargo peptide only group
[7] = 200 nM peptide, 24 h, cell lysate
[8] = 200 nM peptide, 24 h, conditioned media, vs corresponding non-CPP cargo peptide

| binding result [4] | Molecule | increase in circulating concentration of adiponectin [1, 6] [%] | HMW form of adiponectin in serum [1] | intracellular adiponectin levels (3T3-L1 adipocytes; [7]) | increase in total amount of adiponectin secreted in the media (3T3-L1 adipocytes; [8]) [%] | amount of HMW adiponectin in the cell lysate (3T3-L1 adipocytes; 200 nM, cell lysate) | sub-population of the hexametric adiponectin in the cell lysate (3T3-L1 adipocytes; 200 nM, cell lysate) | HMW adiponectin level in conditioned media (3T3-L1 adipocytes; 200 nM, conditioned media) | hexamer adiponectin level in conditioned media (3T3-L1 adipocytes; 200 nM, conditioned media) | trimeric adiponectin level in conditioned media (3T3-L1 adipocytes; 200 nM, conditioned media) | HFD-induced insulin resistance (calculated HOMA-IR) [2] | HFD-induced reduction of adiponectin concentrations in serum [2] | circulating cholesterol levels [2] | circulating triglyceride levels [2] | lipid (triglyceride) accumulation in livers [2] | HFD-induced hyperglycemia (fasting glucose levels) [2] | other results |
| --- | --- | --- | --- | --- | --- | --- | --- | --- | --- | --- | --- | --- | --- | --- | --- | --- | --- |
| – | YGRKKKRRQQRRRGTCY [CPP-M1] | ~28 | increased | decreased | ~45 | significantly increased | decreased | significantly elevated | significantly elevated | significantly elevated | significantly blocked | prevented the reduction | significantly reduced | significantly reduced | attenuated | significantly blocked | body fat mass under HFD ([2]; compared to M1 cargo peptide): significantly decreased |
| – | YGRKKRRQQRRRKGTCAGWMA [CPP-adiponectin] | – | significantly decreased | increased | – | – | – | significantly reduced | – | significantly reduced | – | – | – | – | – | – | decrease in circulating concentration of adiponectin [1, 6]: ~14%; reduction of total amount of adiponectin in the conditioned media (3T3-L1 adipocytes; [8]): ~16%; oligomeric composition of adiponectin in the cell lysate (3T3-L1 adipocytes; 200 nM, cell lysate): shifted towards the trimer; amount of adiponectin bound to ERp44 in mouse adipose tissue [3]: significantly decreased |
| – | YGRKKKRRQQRRRDTGGTCY [CPP-M2] | ~34 | increased | decreased | ~53 | significantly increased | decreased | significantly elevated | significantly elevated | significantly elevated | significantly blocked | prevented the reduction | significantly reduced | significantly reduced | attenuated | significantly blocked | – |
| binds | B1 | – | – | – | – | – | – | – | – | – | – | – | – | – | – | – | – |
| binds | B2 | – | – | – | – | – | – | – | – | – | – | – | – | – | – | – | – |
| – | B3 | – | – | – | – | – | – | – | – | – | – | – | – | – | – | – | binding result [5]: binds |
